Measurements as given in publication PMC6093650, “Antidepressive and anxiolytic effects of ostruthin, a TREK-1 channel activator” (PLoS ONE, 2018).

Tests used:
[1] = test system: depression-like behavior of mice; assay: tail suspension test; assay type: in vivo
Text: (§1) Male ICR mice (n = 317 in total) aged 5 weeks and weighing 32 ± 2 g were purchased from Shimizu Laboratory Supplies (Kyoto, Japan). For the social defeat stress test, we used 28 C57BL/6J mice (5 weeks old, Shimizu Laboratory Supplies) and 30 ICR mice (7–8 weeks old, Charles River Labs Japan, Yokohama, Kanagawa, Japan). Mice were maintained for at least 1 week prior to experiments. Animals were kept in groups in plastic cages. They had free access to food and water, and were kept in a 12-h light/dark cycle (08:00–20:00). Experiments were carried out between 10:00 and 18:00 in a quiet and air-conditioned experimental room, in which mice were habituated for at least 30 min before each experiment. Animal experiments were performed in accordance with the guidelines of the Physiological Society of Japan and were approved by the Committees on Animal Experiments at Kansai Medical University and the Kurashiki University of Science and the Arts. Ostruthin was initially dissolved in DMSO at higher concentration (100 mM) and then diluted in phosphate-buffered saline (PBS). The diluted solution was mixed vigorously for more than 10 min before the experiments, and an equal volume of DMSO was added to PBS as a control. PBS and ostruthin were administered intraperitoneally 30 min before mice behavioral tests (0.01 ml/g body weight). Each animal was used only once, except for the wheel running test, which was carried out immediately after elevated plus maze.
The tail suspension test was performed in accordance with a method reported previously. The mouse was hung on a hook using adhesive tape placed 2 cm from the extremity of its tail 50 cm above the table. The amount of time spent immobile was recorded for 5 min.

KCNQ-1 = KCNQ-1 (Homo sapiens, UniProt P51787); assay: whole-cell patch-clamp of KCNQ-1 currents in 293T cells; assay type: cell-based; settings: 100 μM (data not shown)
Text: (§2) For recordings of K^+ channel currents, we prepared stable cell lines for TREK-1, TWIK-related acid-sensitive K^+ channel (TASK-1), strongly inwardly rectifying K^+ channel (Kir2.1), and human ether-a-go-go-related gene (HERG-1) channels and transiently expressed other channels in 293T cells using a calcium-phosphate transfection method. For the establishment of the stable lines, we used lentiviral vectors, and the preparation methods for the lentiviral vectors were described in our previous report. TR-1 cells, which stably expressed TREK-1 channel and were grown on a small cover glass (3 × 18 mm), were placed in a recording chamber with an internal volume of 200 μl. Whole-cell currents were recorded in Tyrode solution using an Axopatch 200B amplifier (Axon Instruments, Foster City, CA) at 25°C. Tyrode solution contained (in mM): NaCl 140, KCl 5.4, NaH2PO4 0.33, CaCl2 2, MgCl2 1, HEPES 5, and glucose 5.5 (pH 7.4 adjusted with NaOH). […] Perfusion (100 μl/min) was continued to maintain the water level throughout recordings. pH and osmotic pressure of solutions were measured with a pH meter (Horiba, Kyoto, Japan) and a freezing point osmometer (Knauer, Berlin, Germany), respectively. […]

Kir2.1 = molecular target: T1, Kir2.1 (Homo sapiens, UniProt P63252); assay: whole-cell patch-clamp of Kir2.1 currents in 293T cells; assay type: cell-based; settings: n = 5, read-out: IC50 Kir 2.1
T1 construct: expressed in transfected cells
T1 sequence (P63252 1-427): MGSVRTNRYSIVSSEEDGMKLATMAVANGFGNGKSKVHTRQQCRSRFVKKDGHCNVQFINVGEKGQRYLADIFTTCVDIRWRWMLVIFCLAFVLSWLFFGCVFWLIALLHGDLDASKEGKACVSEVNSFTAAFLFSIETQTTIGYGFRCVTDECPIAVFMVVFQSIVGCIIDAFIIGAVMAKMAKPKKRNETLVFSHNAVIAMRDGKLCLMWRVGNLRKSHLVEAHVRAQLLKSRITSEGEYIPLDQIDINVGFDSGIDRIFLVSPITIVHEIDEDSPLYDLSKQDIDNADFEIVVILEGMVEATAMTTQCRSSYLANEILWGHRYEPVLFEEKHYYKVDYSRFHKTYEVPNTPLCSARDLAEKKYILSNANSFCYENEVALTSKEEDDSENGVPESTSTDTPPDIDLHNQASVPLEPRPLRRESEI
Text: as §2

[2] = test system: mice anxiety-like behavior; assay: elevated plus maze; assay type: in vivo
Text: as §1
The elevated plus maze apparatus consisted of four arms set in a cross pattern from a neutral central square (6 × 6 cm). Two opposite arms were delimited by vertical walls (closed arms, 30 × 15 × 6 cm), whereas the other two arms had unprotected edges (open arms, 30 × 6 cm). The maze was elevated 40 cm above the floor. At the beginning of each 5 min test session, a mouse was placed in the central neutral area, facing one of the open arms. The total number of the entries to open arms and time spent in the open arms were measured. After removal of the animal, the apparatus was cleaned and wiped.

Kv1.4 = Kv1.4 (Homo sapiens, UniProt P22459); assay: whole-cell patch-clamp of Kv1.4 currents in 293T cells; assay type: cell-based; settings: n = 5
Kv1.4, sequence (P22459 whole entry): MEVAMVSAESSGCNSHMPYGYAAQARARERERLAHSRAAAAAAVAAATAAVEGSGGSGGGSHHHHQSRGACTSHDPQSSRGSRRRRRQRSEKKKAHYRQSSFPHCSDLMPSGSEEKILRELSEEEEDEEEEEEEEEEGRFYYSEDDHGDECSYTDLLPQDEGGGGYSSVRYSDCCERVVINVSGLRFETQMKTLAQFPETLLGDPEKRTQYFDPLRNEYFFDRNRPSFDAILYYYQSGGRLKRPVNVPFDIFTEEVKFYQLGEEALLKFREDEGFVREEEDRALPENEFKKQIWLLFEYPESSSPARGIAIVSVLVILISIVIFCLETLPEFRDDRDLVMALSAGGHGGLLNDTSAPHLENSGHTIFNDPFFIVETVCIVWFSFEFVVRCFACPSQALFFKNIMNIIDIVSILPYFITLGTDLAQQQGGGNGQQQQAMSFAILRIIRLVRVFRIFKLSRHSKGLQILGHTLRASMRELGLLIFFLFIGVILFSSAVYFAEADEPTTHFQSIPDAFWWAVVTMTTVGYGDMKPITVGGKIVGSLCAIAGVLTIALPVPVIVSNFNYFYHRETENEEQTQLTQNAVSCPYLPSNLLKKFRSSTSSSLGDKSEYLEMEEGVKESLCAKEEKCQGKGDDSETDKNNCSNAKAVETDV
Text: as §2

effect on KCNQ-1 channels (KCNQ-1): no effect
IC50 (Kir2.1): 198 µM
IC50 (Kv1.4): 269 µM
Structure (SMILES): CC(C)=CCC/C(C)=C/Cc1cc2ccc(=O)oc2cc1O [ostruthin]
time spent immobile ([1]; amlodipine experiment: single compound vs PBS, ostruthin 5 mg/kg or amlodipine 10 mg/kg, n = 9 and 13): significantly decreased
time spent immobile ([1]; i.p. 30 min before test, 5 min, n = 14, vs PBS): decreased
time spent immobile ([1]; ostruthin 5 mg/kg in the presence of amlodipine 10 mg/kg (co-administration)): no effect
time spent immobile ([1]; ostruthin given 30 min after pre-administration of amlodipine, vs secondary PBS, n = 8): ineffective
number of entries to the open arm ([2]; 20 mg/kg i.p., vs 5 mg/kg): decreased
time spent on the open arm ([2]; 20 mg/kg i.p., vs 5 mg/kg): decreased
number of entries to the open arm ([2]; 2 and 5 mg/kg i.p. 30 min before test, vs 0 mg/kg): increased
number of entries to the open arm ([2]; amlodipine experiment: single compound vs PBS, ostruthin 5 mg/kg or amlodipine 10 mg/kg, n = 6): increased
number of entries to the open arm ([2]; ostruthin 5 mg/kg co-administered with amlodipine 10 mg/kg, vs amlodipine, n = 6): did not increase
time spent in the open arm ([2]; ostruthin 5 mg/kg in the absence of amlodipine, vs PBS, n = 6): increased
increase of time spent in the open arm ([2]; ostruthin 5 mg/kg in the presence of amlodipine 10 mg/kg, n = 6): did not
